Data from patent US7939558B2, “Compounds having activity in increasing ion transport by mutant-CFTR and uses thereof” (The Regents of the University of California, priority 2004, dated 2011).
Like-named read-outs stand apart in the source and are kept apart here.

Target: ΔF508-CFTR (Homo sapiens, UniProt P13569, DEL508-508)
Assay: Fluorescence (YFP-H148Q/I152L) I− influx assay of ΔF508-CFTR potentiator activity in FRT cells
Type: cell-based
Set-up: expressed in transfected cells
Details: 27° C. 24 h, forskolin 20 μM, read-out: Ka
Experimental: Clonal populations of Fischer rat thyroid (FRT) epithelial cells stably co-expressing human ΔF508-CFTR and the high-sensitivity halide-sensing green fluorescent analog YFP-H148Q/I152L (Galietta et al., A.S. (2001) FEBS Lett. 499, 220-224) were generated by liposome transfection and limiting dilution with Zeocin/G418 selection. More than 100 clones were evaluated for high fluorescence and ΔF508-CFTR plasma membrane targeting after growth at 27° C. for 24 hours. For screening, cells were cultured on plastic in Coon's modified F12 medium supplemented with 10% fetal bovine serum, 2 mM L-glutamine, 100 U/ml penicillin, and 100 μg/ml streptomycin, and plated on black 96-well microplates (Corning-Costar 3904) at 30,000 cells/well. For short-circuit measurements cells were cultured on Snapwell permeable supports (Corning-Costar) at 500,000 cells/insert. Human nasal epithelium cells from CF patients were cultured on Snapwell inserts and allowed to differentiate in a hormone-supplemented medium (Galietta et al., Am. J. Physiol., […]). Some measurements were done using stably transfected FRT cells expressing YFP-H148Q and wildtype- or G551D-CFTR (Galietta et al., (2001) J. Biol. Chem. 276, 19723-19728). Patch clamp experiments were done on ΔF508-CFTR-expressing FRT cells plated in 35-mm Petri dishes.
Screening was carried out using a Beckman integrated system containing a 3-meter robotic arm, CO2 incubator containing microplate carousel, plate-washer, liquid handling workstation, bar code reader, delidding station, plate sealer, and two FluoStar fluorescence plate readers (Galaxy, BMG Lab Technologies), each equipped with dual syringe pumps and HQ500/20X ([…]) excitation and HQ535/30M (535±15 nm) emission filters (Chroma). Software was written in VBA (Visual Basic for Applications) to compute baseline-subtracted fluorescence slopes (giving halide influx rates).
For assay of ΔF508-CFTR potentiator activity the incubator (27° C., 90% humidity, 5% CO2/95% air) was loaded with forty-to-sixty 96-well plates containing FRT cells. After an 18-24 hour incubation plates were washed 3 times with PBS (300 μl/wash) leaving 50 μl PBS. 10 μl of PBS containing 120 μM forskolin was added, and after 5 min test compounds (0.6 μl of 0.25 mM DMSO solution) were added to each well to give 2.5 μM final compound concentrations. After 15 min, 96-well plates were transferred to a plate reader for fluorescence assay. Each well was assayed individually for I^− influx by recording fluorescence continuously (200 ms per point) for 2 seconds (baseline) and then for 12 seconds after rapid (<1 s) addition of 160 μL of isosmolar PBS in which 137 mM Cl^− was replaced by I^−. I^− influx rates were computed from initial fluorescence versus time-curve slopes (determined by 3rd order polynomial regression) after normalization for total fluorescence (background subtracted initial fluorescence). All compound plates contained negative control (DMSO vehicle alone) and positive controls (genistein, 5 μM and 50 μM). Assay analysis indicated a Z′-factor of >0.7 (Zhang et al., J. Biomol. Screen 4:67-73 (1999)).
The high-throughput screen was designed to identify compounds that activated ΔF508-CFTR when expressed at the cell plasma membrane. FRT epithelial cells co-expressing ΔF508-CFTR and a high sensitivity yellow fluorescent protein-based halide indicator were incubated at 27° C. for 24 h to permit ΔF508-CFTR plasma membrane targeting (FIG. 1, panel A). After washing, forskolin (20 μM) and test compounds (2.5 μM) were added to individual wells of 96-well plates. The I^− influx assay was carried out ˜15 min later by measurement of the time course of decreasing YFP fluorescence after creation of an inwardly-directed I^− gradient. A high concentration of forskolin was used to identify ΔF508-CFTR potentiators that may interact directly with ΔF508-CFTR rather than alter cAMP concentration. […]

[1] = phenylglycine containing compounds
[2] = sulfonamide containing compounds

Chain of ΔF508-CFTR (P13569 with tags, fused parts or gaps DEL508-508): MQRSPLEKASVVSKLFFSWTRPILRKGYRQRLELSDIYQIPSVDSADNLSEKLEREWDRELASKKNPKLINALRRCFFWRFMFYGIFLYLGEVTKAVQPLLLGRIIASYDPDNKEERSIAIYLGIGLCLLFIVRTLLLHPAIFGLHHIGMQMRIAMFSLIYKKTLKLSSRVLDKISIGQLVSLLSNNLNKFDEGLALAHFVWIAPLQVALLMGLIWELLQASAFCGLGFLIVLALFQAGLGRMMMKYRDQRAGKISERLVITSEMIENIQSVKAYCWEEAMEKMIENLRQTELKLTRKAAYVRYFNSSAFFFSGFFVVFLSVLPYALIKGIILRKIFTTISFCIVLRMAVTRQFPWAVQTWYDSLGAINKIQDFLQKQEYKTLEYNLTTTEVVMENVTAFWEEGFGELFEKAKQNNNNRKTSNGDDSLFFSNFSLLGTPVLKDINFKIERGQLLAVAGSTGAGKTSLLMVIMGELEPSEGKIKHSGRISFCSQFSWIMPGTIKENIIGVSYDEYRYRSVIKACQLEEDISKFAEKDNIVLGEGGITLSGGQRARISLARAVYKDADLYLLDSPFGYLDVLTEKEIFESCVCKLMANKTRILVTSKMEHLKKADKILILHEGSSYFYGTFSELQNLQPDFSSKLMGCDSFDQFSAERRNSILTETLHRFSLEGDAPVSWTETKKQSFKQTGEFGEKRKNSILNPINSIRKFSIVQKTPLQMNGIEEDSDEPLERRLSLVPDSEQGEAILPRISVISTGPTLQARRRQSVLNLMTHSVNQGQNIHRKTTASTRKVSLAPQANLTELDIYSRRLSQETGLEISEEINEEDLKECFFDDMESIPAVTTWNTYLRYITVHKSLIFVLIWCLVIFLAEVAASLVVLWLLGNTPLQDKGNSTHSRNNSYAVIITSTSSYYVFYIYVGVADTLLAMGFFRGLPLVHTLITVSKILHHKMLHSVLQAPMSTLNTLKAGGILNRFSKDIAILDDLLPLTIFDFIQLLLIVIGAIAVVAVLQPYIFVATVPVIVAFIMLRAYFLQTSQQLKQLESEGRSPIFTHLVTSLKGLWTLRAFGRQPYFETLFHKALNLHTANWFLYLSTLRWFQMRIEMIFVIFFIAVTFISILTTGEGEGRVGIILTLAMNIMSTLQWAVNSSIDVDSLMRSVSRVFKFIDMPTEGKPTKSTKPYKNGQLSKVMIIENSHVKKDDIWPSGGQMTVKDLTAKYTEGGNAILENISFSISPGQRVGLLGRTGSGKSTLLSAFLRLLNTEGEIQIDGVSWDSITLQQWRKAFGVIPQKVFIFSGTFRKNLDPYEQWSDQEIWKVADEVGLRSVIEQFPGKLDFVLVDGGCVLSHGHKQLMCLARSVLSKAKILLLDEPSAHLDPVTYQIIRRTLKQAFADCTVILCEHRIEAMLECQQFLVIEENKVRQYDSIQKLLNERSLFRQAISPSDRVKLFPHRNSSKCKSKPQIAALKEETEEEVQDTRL

Compound | EC50 [1] [nM] | EC50 [2] [nM]
CC(=O)NCC(=O)N(C)C(C(=O)Nc1ccc2c(c1)OCCO2)c1ccccc1 (centres unmarked) [Compound P-2, 2-[(2-Acetylamino-acetyl)-methyl-amino]-N-(2,3-dihydro-benzo[1,4]dioxin-6-yl)-2-phenyl-acetamide] | 300 | –
COc1ccc(C(C(=O)Nc2ccc(C(C)C)cc2)N(C)C(=O)Cc2c[nH]c3ccccc23)cc1 (centres unmarked) [Compound P-3, 2-[(2-1H-Indol-3-yl-acetyl)-methyl-amino]-N-(4-isopropyl-phenyl)-2-(4-methoxy-phenyl)-acetamide] | 340 | –
COc1ccc(NC(=O)C(c2ccccc2)N(C)C(=O)Cc2c[nH]c3ccccc23)cc1 (centres unmarked) [Compound P-5, 2-[(2-1H-Indol-3-yl-acetyl)-methyl-amino]-N-(4-methoxy-phenyl)-2-phenyl-acetamide] | 700 | –
CC(C)c1ccc(NC(=O)C(NC(=O)Cc2c[nH]c3ccccc23)c2ccccc2)cc1 (centres unmarked) [Compound P-6, 2-(2-1H-Indol-3-yl-acetylamino)-N-(4-isopropyl-phenyl)-2-phenyl-acetamide] | 880 | –
Cc1ccc(C(C(=O)Nc2ccc3c(c2)OCO3)N(C)C(=O)Cc2c[nH]c3ccccc23)cc1 (centres unmarked) [Compound P-7, N-Benzo[1,3]dioxol-5-yl-2-[(2-1H-indol-3-yl-acetyl)-methyl-amino]-2-p-tolyl-acetamide] | 1330 | –
COc1ccc(NC(=O)C(c2ccc(OC)cc2)N(C)C(=O)Cc2c[nH]c3ccccc23)cc1 (centres unmarked) [Compound P-8, 2-[(2-1H-Indol-3-yl-acetyl)-methyl-amino]-2,N-bis-(4-methoxy-phenyl)-acetamide] | 2130 | –
Cc1ccc(C(NC(=O)Cc2cc3ccccc3[nH]2)C(=O)Nc2ccc3c(c2)OCCO3)cc1 (centres unmarked) [Compound P-9, N-(2,3-Dihydro-benzo[1,4]dioxin-6-yl)-2-(2-1H-indol-2-yl-acetylamino)-2-p-tolyl-acetamide] | 2330 | –
COc1ccc(C(C(=O)Nc2ccc3c(c2)OCCO3)N(C)C(=O)Cc2c[nH]c3ccccc23)cc1 (centres unmarked) [Compound P-10, N-(2,3-Dihydro-benzo[1,4]dioxin-6-yl)-2-[(2-1H-indol-3-yl-acetyl)-methyl-amino]-2-(4-methoxy-phenyl)-acetamide] | 2710 | –
CCN(c1ccccc1)S(=O)(=O)c1ccc2[nH]cc(C(=O)NC3CCCCCC3)c(=O)c2c1 [Compound S-2] | – | 20
CCN(c1ccccc1)S(=O)(=O)c1ccc2[nH]cc(C(=O)NC3CCCCC3)c(=O)c2c1 [Compound S-4] | – | 30
C=CCN(c1ccccc1)S(=O)(=O)c1ccc2[nH]cc(C(=O)NCCCC)c(=O)c2c1 [Compound S-6] | – | 110
C=CCN(c1ccccc1)S(=O)(=O)c1ccc2[nH]cc(C(=O)NC3CCCCCC3)c(=O)c2c1 [Compound S-7] | – | 120
Cc1ccc(C)c(N(C)S(=O)(=O)c2ccc3[nH]cc(C(=O)NCc4ccccn4)c(=O)c3c2)c1 [Compound S-8] | – | 130
CCN(c1ccccc1)S(=O)(=O)c1ccc2[nH]cc(C(=O)NCCCOC)c(=O)c2c1 [Compound S-9, 6-(Ethyl-phenyl-sulfamoyl)-4-oxo-1,4-dihydro-quinoline-3-carboxylic acid (3-methoxy-propyl)-amide] | – | 140
C=CCN(c1ccccc1)S(=O)(=O)c1ccc2[nH]cc(C(=O)NCc3ccccn3)c(=O)c2c1 [Compound S-11] | – | 160
C=CCN(c1ccccc1)S(=O)(=O)c1ccc2[nH]cc(C(=O)NCCCCCC)c(=O)c2c1 [Compound S-12] | – | 190
CCCCNC(=O)c1c[nH]c2ccc(S(=O)(=O)N(C)c3ccccc3C)cc2c1=O [Compound S-13] | – | 200
CCOc1ccccc1N(C)S(=O)(=O)c1ccc2[nH]cc(C(=O)NCC3CCCO3)c(=O)c2c1 (centres unmarked) [Compound S-14] | – | 200
CCCCCNC(=O)c1c[nH]c2ccc(S(=O)(=O)N(C)c3cccc(C)c3)cc2c1=O [Compound S-15] | – | 220

Compound | EC50 [1] [nM] | EC50 [2] [nM]
CCN(c1ccccc1)S(=O)(=O)c1ccc2[nH]cc(C(=O)NCCC3=CCCCC3)c(=O)c2c1 [Compound S-16] | – | 240
CCN(c1ccccc1)S(=O)(=O)c1ccc2[nH]cc(C(=O)NCC3CCCO3)c(=O)c2c1 (centres unmarked) [Compound S-17] | – | 240
CCc1ccccc1N(C)S(=O)(=O)c1ccc2[nH]cc(C(=O)NCc3ccccn3)c(=O)c2c1 [Compound S-18] | – | 270
COCCCNC(=O)c1c[nH]c2ccc(S(=O)(=O)N(C)c3cc(C)ccc3C)cc2c1=O [Compound S-19] | – | 290
CCCCNC(=O)c1c[nH]c2ccc(S(=O)(=O)N(C)c3c(C)cccc3C)cc2c1=O [Compound S-20, 6-[(2,6-Dimethyl-phenyl)-methyl-sulfamoyl]-4-oxo-1,4-dihydro-quinoline-3-carboxylic acid butylamide] | – | 330
CCN(c1ccc(F)cc1)S(=O)(=O)c1ccc2[nH]cc(C(=O)NC3CCCC3)c(=O)c2c1 [Compound S-21, 6-[Ethyl-(4-fluoro-phenyl)-sulfamoyl]-4-oxo-1,4-dihydro-quinoline-3-carboxylic acid cyclopentylamide] | – | 330
CCOC(CNC(=O)c1c[nH]c2ccc(S(=O)(=O)N(C)c3ccc(CC)cc3)cc2c1=O)OCC [Compound S-22] | – | 360
COc1ccc(Cl)cc1N(C)S(=O)(=O)c1ccc2[nH]cc(C(=O)NCCC3=CCCCC3)c(=O)c2c1 [Compound S-23] | – | 370
CCN(CC)S(=O)(=O)c1ccc2[nH]cc(C(=O)NCc3ccc4c(c3)OCO4)c(=O)c2c1 [Compound S-24] | – | 380
CCC(C)NC(=O)c1c[nH]c2ccc(S(=O)(=O)N(C)c3cccc(C)c3)cc2c1=O (centres unmarked) [Compound S-25, 6-(Methyl-m-tolyl-sulfamoyl)-4-oxo-1,4-dihydro-quinoline-3-carboxylic acid sec-butylamide] | – | 440
CCc1ccccc1N(C)S(=O)(=O)c1ccc2[nH]cc(C(=O)NC(C)CC)c(=O)c2c1 (centres unmarked) [Compound S-26] | – | 440
CCN(c1ccccc1)S(=O)(=O)c1ccc2[nH]cc(C(=O)NCc3ccco3)c(=O)c2c1 [Compound S-27] | – | 460
CCN(c1cccc(C)c1)S(=O)(=O)c1ccc2[nH]cc(C(=O)NCCCOC)c(=O)c2c1 [Compound S-28] | – | 480
Cc1cccc(N(C)S(=O)(=O)c2ccc3[nH]cc(C(=O)NCCC4=CCCCC4)c(=O)c3c2)c1 [Compound S-29, 6-(Methyl-m-tolyl-sulfamoyl)-4-oxo-1,4-dihydro-quinoline-3-carboxylic acid (2-cyclohex-1-enyl-ethyl)-amide] | – | 490
CCN(c1ccc(F)cc1)S(=O)(=O)c1ccc2[nH]cc(C(=O)NCC3CCCO3)c(=O)c2c1 (centres unmarked) [Compound S-30, 6-[Ethyl-(4-fluoro-phenyl)-sulfamoyl]-4-oxo-1,4-dihydro-quinoline-3-carboxylic acid (tetrahydro-furan-2-ylmethyl)-amide] | – | 540
CCCNC(=O)c1c[nH]c2ccc(S(=O)(=O)N(C)c3cccc(C)c3)cc2c1=O [Compound S-31] | – | 560
O=C(NC1CCCCC1)c1c[nH]c2ccc(S(=O)(=O)N3CCc4ccccc43)cc2c1=O [Compound S-32, 6-(2,3-Dihydro-indole-1-sulfonyl)-4-oxo-1,4-dihydro-quinoline-3-carboxylic acid cyclohexylamide] | – | 570
CCN(c1ccccc1)S(=O)(=O)c1ccc2[nH]cc(C(=O)NCc3ccc(C)cc3)c(=O)c2c1 [Compound S-33] | – | 590
CCOC(=O)C(NC(=O)c1c[nH]c2ccc(S(=O)(=O)N(C)C3CCCCC3)cc2c1=O)C(=O)OCC [Compound S-34] | – | 590
